From US20250002450A1, “CATIONIC STEROID COMPOUNDS, METHOD OF OBTAINING THEREOF, FORMULATIONS COMPRISING THEREOF AND THEIR USES” (UNIVERSIDADE DO PORTO, priority 2021, published 2025)
In brackets after ≈: the same amount, converted by molar mass.

Tests used:
[1] = tested on: Escherichia coli ATCC 25922; assay: Antibacterial MIC/MBC (broth microdilution); type: cell-based; conditions: Escherichia coli ATCC 25922
Description: (§1) Twelve reference bacterial strains and nine MDR clinically relevant bacterial strains were used in this study. Gram-negative bacteria comprised reference strains E. coli ATCC 25922, K. pneumoniae ATCC 13883, Salmonella enterica serovar Typhimurium CECT 443, P. aeruginosa ATCC 27853, A. baumannii ATCC 19606, C. jejuni ATCC 33560 (ATCC—American Type Culture Collection; CECT—Colección Espanola de Cultivos Tipo); clinical isolates E. coli SA/2, an extended-spectrum β-lactamase (ESBL)-producing strain and P. aeruginosa 33b, a pan-drug-resistant isolate; and animal isolates C. jejuni P5/4, a ciprofloxacin-resistant strain, C. jejuni 4432, C. jejuni 4433, C. jejuni 4448, and E. coli 2252, a COL-resistant strain [42]. Gram-positive strains included S. aureus ATCC 29213, E. faecalis ATCC 29212, S. pyogenes ATCC 19615, and environmental isolates methicillin-resistant S. aureus (MRSA) 66/1 [43], and VAN-resistant enterococci (VRE) E. faecalis B3/101 [44]. Gram-negative fish pathogens Yersinia ruckeri ATCC 29473, Listonella anguillarum ATCC 1924, and Tenacibaculum maritimum ATCC 43397 were also included.
(§2) Strains were kept in Trypto-Casein Soy agar (TSA—Biokar Diagnostics, Allone, Beauvais, France) slants and, before each assay, were sub-cultured in Mueller-Hinton agar (MHA—Biokar Diagnostics, Allone, Beauvais, France). Y. ruckeri ATCC 29473 and L. anguillarum ATCC 1924 were kept in Nutrient Agar (Condalab, Madrid, Spain) and T. maritimum ATCC 43397 was kept in TMM agar (Condalab, Madrid, Spain), and were sub-cultured in the respective culture media before each assay. For S. pyogenes ATCC 19615, CAMHB was supplemented with 3.75% lysed horse blood (LBH—Oxoid, Basingstoke, England), whereas for C. jejuni it was supplemented with 2.5% LHB. Colony-forming unit counts of the inoculum were conducted to determine the initial inoculum size (which should be approximately 5×10^5 CFU/mL). Sterility and growth controls were included in each assay. The 96-well U-shaped untreated polystyrene microtiter plates were incubated for 20 h at 37 degrees C. (42 degrees C. for C. jejuni, in a microaerophilic atmosphere) and the minimal inhibitory concentration (MIC) was determined as the lowest concentration of compound that prevented visible growth. The minimal bactericidal concentration (MBC) was determined by spreading 100 μL of the content of the wells with no visible growth on MH plates. The MBC was determined as the lowest concentration of compound that killed 99.9% of the initial inoculum after overnight incubation at 37 degrees C. Two independent assays were performed for reference and MDR strains.
(§3) An initial screening of the antibacterial activity of the compounds was performed by the Kirby-Bauer disk diffusion method, as recommended by the Clinical and Laboratory Standards Institute (CLSI). Briefly, sterile 6 mm blank paper disks (Oxoid, Basingstoke, England) impregnated with 15 μg of each compound were placed on inoculated MH agar plates. A blank disk with dimethylsulfoxide (DMSO) was used as a negative control. MH inoculated plates were incubated for 18-20 h at 37 degrees C. At the end of incubation, the inhibition halos where measured. The MIC was used to determine the antibacterial activity of each compound, in accordance with the recommendations of the CLSI. Two-fold serial dilutions of the compounds were prepared in Mueller-Hinton Broth 2 (MHB2—Sigma-Aldrich, St. Louis, MO, USA) within the concentration range of 0.062-64 μg/mL. CTX ranging between 0.031-16 μg/mL was used as a control. Sterility and growth controls were included in each assay. Purity checks and colony counts of the inoculum suspensions were also performed in order to ensure that the final inoculum density closely approximates the intended number (5×10^5 CFU/mL). The MIC was determined as the lowest concentration of compound that inhibited growth of the bacteria. The MBC was assessed by spreading 10 μL of culture collected from wells showing no visible growth on MH agar plates. […]

[2] = tested on: E. coli ATCC 25922; assay: Enzymatic/metabolic activity, MTT assay; type: cell-based, Escherichia coli; conditions: 0, 1, 18 h
Procedure: To determine whether compound 1 could also affect enzymatic activity, 2-(4,5-dimethyl-2-thiazolyl)-3,5-diphenyl-2H-tetrazolium bromide (MTT) assay was performed. This assay can also be used as an indirect measure of cellular viability, as tetrazolium salts are reduced to purple formazan by metabolically active cells. E. coli ATCC 25922 cells were treated with compound 1 and COL and AMP were used as controls, as described above. Measurements were made at 0, 1, and 18 h.
Enzymatic activity was evaluated by the MTT assay, as previously described, with some modifications. Cell suspensions of E. coli ATCC 25922 were prepared as described above, as well as test conditions and controls. At each time point (0, 1, and 18 h), 500 μL aliquots were collected, centrifuged at 3500 rpm for 10 min, the supernatant was removed, and 300 μL of MTT solution (0.5 mg/mL in CAMHB, at 36 degrees C.) (Thiazolyl Blue Tetrazolium Bromide, Alfa Aesar, Ward Hill, MA, USA) were added. After a 30 min incubation at 36° C., the insoluble formazan product resulting from the conversion of MTT by metabolically active cells was solubilized with 300 μL of DMSO. 100 μL of each sample were transferred in duplicate to the wells of a microtiter plate and the extent of the reduction of MTT to formazan was quantified by measuring the absorbance at 570 nm (Thermo Scientific Multiskan® EX, Thermo Fisher Scientific, Waltham, MA, USA). Three independent assays were performed in duplicate, and results are expressed as a percentage of untreated control.

[3] = tested on: E. coli ATCC 25922; assay: Membrane integrity, propidium iodide influx assay (SYTO 9/PI); type: cell-based, Escherichia coli; conditions: 0, 1, 18 h
Procedure: The influx of PI in E. coli ATCC 25922 treated with 2×MIC, MIC, and ½×MIC of compound 1 was evaluated using a commercial kit that includes fluorescent nucleic acid stains SYTO® 9 and PI. SYTO® 9 can enter cells with intact or damaged membranes, generally labeling both, whereas PI only penetrates cells with severe membrane lesions, causing a reduction in SYTO® 9 fluorescence when both dyes are present.
In these assays, COL and AMP were used as controls. COL is a polycationic antimicrobial peptide with a complex mode of action, that ultimately solubilizes the bacterial cell membrane. AMP is an aminopenicillin that inhibits cell wall synthesis by inhibiting penicillin-binding proteins. E. coli ATCC 25922 cells were treated with compound 1 and, at several time-points (0, 1, and 18 h), samples were taken, and SYTO® 9/PI ratio was determined ([FIG. 4]). The entrance of PI is reflected in a reduction of this ratio.
Briefly, E. coli ATCC 25922 colonies from overnight cultures in MHA were suspended in CAMHB to prepare an inoculum with a final concentration of approximately 5×10^5 CFU/mL. The tubes were incubated overnight at 36° C. in a water bath with shaking. Following this, the cell suspensions were centrifuged at 3500 rpm for 15 min, the supernatant was removed, the cells were carefully resuspended in fresh CAMHB and the suspension was adjusted to 0.5 McFarland. An aliquot of this suspension was then added to each tube of CAMHB alone (control) or CAMHB plus an appropriate amount of test compound. […] The tubes were incubated at 36 degrees C. in a water bath with shaking and, at pre-established time points (0, 1, and 18 h), […] aliquots were retrieved for further analysis. After the exposure time, cells were washed two times, resuspended in 0.85% NaCl, and 100 μL of each cell suspension was distributed in the wells of a microtiter plate, in triplicate. 100 μL of a mixture of 30 μM PI and 5 μM SYTO® 9 prepared in ultrapure water were added to each well, and the plates were incubated at room temperature, in the dark, for 15 min. The fluorescence intensity of the stained bacterial suspensions was determined using a microplate reader (Synergy HT, BioTek Instruments, Winooski, VT, USA) by two consecutive measurements with excitation wavelength 485 nm and emission wavelength 528 nm (SYTO® 9) or 590 nm (PI). Data were analyzed by subtracting background fluorescence from each sample, dividing the fluorescence intensity of SYTO® 9 by fluorescence intensity of PI, and the results are presented as a percentage of control. Three independent assays were performed in triplicate for each experimental condition.

[4] = tested on: Pseudomonas aeruginosa ATCC 27853; assay: Antibacterial MIC/MBC (broth microdilution); type: cell-based; conditions: Pseudomonas aeruginosa ATCC 27853
Description: as §1, §2, §3

[5] = tested on: Listonella anguilarum ATCC 1924; assay: Antibacterial MIC/MBC (broth microdilution); type: cell-based; conditions: Listonella anguilarum ATCC 1924
Description: as §1, §2, §3

[6] = tested on: Acinetobacter baumannii ATCC 19606; assay: Antibacterial MIC/MBC (broth microdilution); type: cell-based; conditions: Acinetobacter baumannii ATCC 19606
Description: as §1, §2, §3

[7] = tested on: Salmonella enterica serovar Typhimurium CECT 443; assay: Antibacterial MIC/MBC (broth microdilution); type: cell-based
Description: as §1, §2, §3

[8] = tested on: Klebsiella pneumoniae ATCC 13883; assay: Antibacterial MIC/MBC (broth microdilution); type: cell-based; conditions: Klebsiella pneumoniae ATCC 13883
Description: as §1, §2, §3

[9] = tested on: Campylobacter jejuni ATCC 33560; assay: Antibacterial MIC/MBC (broth microdilution); type: cell-based; conditions: Campylobacter jejuni ATCC 33560
Description: as §1, §2, §3

[10] = tested on: Staphylococcus aureus ATCC 29213; assay: Antibacterial MIC/MBC (broth microdilution); type: cell-based
Description: as §1, §2, §3

[11] = tested on: Yersinia ruckeri ATCC 29473; assay: Antibacterial MIC/MBC (broth microdilution); type: cell-based
Description: as §1, §2, §3

[12] = tested on: Tenacibaculum maritimum ATCC 43397; assay: Antibacterial disk diffusion; type: cell-based; conditions: Tenacibaculum maritimum ATCC 43397, footnote *
Description: as §1, §2, §3

[13] = tested on: S. aureus 66/1 (MRSA); assay: Antibacterial MIC/MBC (broth microdilution); type: cell-based, Staphylococcus aureus
Description: as §1, §2, §3

[14] = tested on: P. aeruginosa 33b (PDR); assay: Antibacterial MIC/MBC (broth microdilution); type: cell-based, Pseudomonas aeruginosa; conditions: P. aeruginosa 33b (PDR)
Description: as §1, §2, §3

[15] = tested on: Streptococcuss pyogenes ATCC 19615; assay: Antibacterial MIC/MBC (broth microdilution); type: cell-based, Streptococcus pyogenes; conditions: Streptococcuss pyogenes ATCC 19615
Description: as §1, §2, §3

[16] = tested on: E. coli 2252 (COL-resistant); assay: Antibacterial MIC/MBC (broth microdilution); type: cell-based, Escherichia coli; conditions: E. coli 2252 (COL-resistant)
Description: as §1, §2, §3

[17] = tested on: E. coli SA/2 (ESBL); assay: Antibacterial MIC/MBC (broth microdilution); type: cell-based, Escherichia coli; conditions: E. coli SA/2 (ESBL)
Description: as §1, §2, §3

[18] = tested on: Enterococcuss faecalis ATCC 29212; assay: Antibacterial MIC/MBC (broth microdilution); type: cell-based, Enterococcus faecalis; conditions: Enterococcuss faecalis ATCC 29212
Description: as §1, §2, §3

[19] = tested on: E. faecalis B3/101 (VRE); assay: Antibacterial MIC/MBC (broth microdilution); type: cell-based, Enterococcus faecalis; conditions: E. faecalis B3/101 (VRE)
Description: as §1, §2, §3

[20] = tested on: C. jejuni 4448; assay: Antibacterial MIC/MBC (broth microdilution); type: cell-based, Campylobacter jejuni
Description: as §1, §2, §3

[21] = tested on: C. jejuni 4432; assay: Antibacterial MIC/MBC (broth microdilution); type: cell-based, Campylobacter jejuni
Description: as §1, §2, §3

[22] = tested on: C. jejuni 4433; assay: Antibacterial MIC/MBC (broth microdilution); type: cell-based, Campylobacter jejuni
Description: as §1, §2, §3

[23] = tested on: C. jejuni P5/4; assay: Antibacterial MIC/MBC (broth microdilution); type: cell-based, Campylobacter jejuni
Description: as §1, §2, §3

**Q.** Which results are given for colistin?
**A.** MIC [1]: 1 µg/mL; metabolic activity (MTT) vs untreated control ([2]; 1 μg/mL): only a significant reduction at 1 h; metabolic activity (MTT) vs untreated control ([2]; 8 μg/mL): significant reduction of metabolic activity at all time points; reduction in SYTO 9/PI ratio vs untreated control ([3]; 1 μg/mL): only a significant reduction at 1 h; reduction in SYTO 9/PI ratio vs untreated control ([3]; 8 μg/mL): statistically significant

**Q.** What does the source list for `C[C@H](CCC(=O)NCCc1nc2ccccc2[nH]1)[C@H]1CC[C@H]2[C@@H]3CC[C@@H]4C[C@H](O)CC[C@]4(C)[C@H]3C[C@H](O)[C@]12C` [Compound 7, (R)—N-(2-(1H-benzo[d]imidazol-2-yl)ethyl)-4-((3R,5R,8R,9S,10S,12S,13R,14S,17R)-3,12-dihydroxy-10,13-dimethylhexadecahydro-1H-cyclopenta[a]phenanthren-17-yl) pentanamide]?
**A.** MBC [4]: >64 µg/mL; MIC [4]: >64 µg/mL; MBC [5]: >64 µg/mL; MIC [5]: >64 µg/mL; MBC [6]: >64 µg/mL; MIC [6]: >64 µg/mL; MBC [7]: >64 µg/mL; MIC [7]: >64 µg/mL; MBC [1]: >64 µg/mL; MIC [1]: >64 µg/mL; MBC [8]: >64 µg/mL; MIC [8]: >64 µg/mL; MBC [9]: >64 µg/mL; MIC [9]: >64 µg/mL; MBC [10]: >64 µg/mL; MIC [10]: 8 µg/mL (≈ 14.9 µM); MBC [11]: >64 µg/mL; MIC [11]: >64 µg/mL; Inhibition zone diameter (disk diffusion) [12]: 9 mm; MBC [13]: >64 µg/mL; MIC [13]: 16 µg/mL (≈ 29.9 µM); MBC [14]: >64 µg/mL; MIC [14]: >64 µg/mL; MBC [15]: >64 µg/mL; MIC [15]: >64 µg/mL; MBC [16]: >64 µg/mL; MIC [16]: >64 µg/mL; MBC [17]: >64 µg/mL; MIC [17]: >64 µg/mL; MBC [18]: >64 µg/mL; MIC [18]: >64 µg/mL; MBC [19]: >64 µg/mL; MIC [19]: >64 µg/mL; MBC [20]: >64 µg/mL; MIC [20]: >64 µg/mL; MBC [21]: >64 µg/mL; MIC [21]: >64 µg/mL; MBC [22]: >64 µg/mL; MIC [22]: >64 µg/mL; MBC [23]: >64 µg/mL; MIC [23]: >64 µg/mL
